Consider 30 compounds from patent US10329307B2, “Heterocyclic compounds as inhibitors of platelet aggregation” (UNIVERSITE DE MONTREAL, priority 2015, dated 2019).

The target of the assay is PAR4 (Homo sapiens (Human), UniProt Q96RI0). Put plainly: FLIPR assay in PAR4-expressing HEK293 cells (PAR4 antagonist activity). Type of assay: cell-based. The following applies: H-Ala-Phe(4-F)-Pro-Gly-Trp-Leu-Val-Lys-Asn-Gly-NH2-induced intracellular calcium mobilization, 11-point curves. The source says: The FLIPR assay is an exemplary in vitro assay for measuring the activity of the PAR4 antagonists of the present invention. In this assay, intracellular calcium mobilization is induced in PAR4 expressing cells by a PAR4 agonist and calcium mobilization is monitored. See, e.g., Example A.
Sequence of PAR4 (Q96RI0 18-385): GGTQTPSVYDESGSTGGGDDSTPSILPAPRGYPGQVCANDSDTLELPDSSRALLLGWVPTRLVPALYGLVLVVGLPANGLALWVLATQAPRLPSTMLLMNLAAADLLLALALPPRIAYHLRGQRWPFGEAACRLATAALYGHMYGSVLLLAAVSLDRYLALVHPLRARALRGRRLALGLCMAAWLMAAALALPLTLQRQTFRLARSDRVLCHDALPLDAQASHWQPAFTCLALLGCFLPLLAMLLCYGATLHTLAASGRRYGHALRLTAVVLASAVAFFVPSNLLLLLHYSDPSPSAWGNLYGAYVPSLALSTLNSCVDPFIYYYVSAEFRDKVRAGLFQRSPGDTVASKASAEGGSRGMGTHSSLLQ
HEK293 cells stably expressing PAR4 were generated by a standard method of transfection of human […] cDNA expression vector or by RAGE technology from Athersys Inc. (Cleveland, Ohio) and selected based on PAR4 protein expression of mRNA expression. […] These cells express endogenous PAR1 and can elicit calcium signal upon stimulation with PAR1 agonist peptide. Cells were grown in Dulbecco's Modified Eagle's Medium (DMEM) (Invitrogen, Carlsbad, Calif.), 10% FBS, 1% PSG, 3 μg/ml puromycin and 25 nM Methotrexate) at 37° C. with 5% CO2.
FLIPR-based calcium mobilization assay in HEK293 cells was used to measure PAR4 antagonism, agonism, and selectivity against PAR1. […] Counter screens for agonist activity and PAR1 antagonist activity were also performed. Briefly, PAR1/PAR4-expressing HEK293 cells were grown in DMEM (Life Technology, Grand Island, N.Y.) containing 10% heat-inactivated FBS, 1% Penicillin-Streptomycin, 10 μg/mL blasticidin, and 100 μg/mL Zeocin at 37° C. with 5% CO2. Cells were plated overnight prior to the experiment in a black 384-well Purecoat Amine clear bottom plate (Becton Dickinson Biosciences, San Jose, Calif.) at 10,000 cells/well in 30 μL growth medium and incubated in a humidified chamber at 37° C. with 5% CO2 overnight. Prior to compound addition, the cell medium was replaced with 40 μL of 1× calcium and magnesium-containing Hank's Balanced Saline Solution (HBSS) (with 20 mM HEPES) and 1:1000 diluted fluorescent calcium indicator (Codex Biosolutions, Gaithersburg, Md.). After a 30 minute incubation period at 37° C. and a further 30 minute incubation and equilibration period at room temperature, 20 μL test compound (diluted in 1×HBSS buffer) was added at various concentrations at 0.17% dimethyl sulfoxide (DMSO) final concentration. Changes in fluorescence intensity were measured using a Functional Drug Screening System (FDSS, Hamamatsu, Japan) to determine agonist activities. The cells were then incubated for 30 minutes at room temperature followed by addition of 20 μL of agonist peptide for antagonist activity measurement. […] Compound potency was derived from 11-point concentration-response curves.
As indicated above, the FLIPR assay, an in vitro assay, measures the PAR4 antagonist activity of compounds tested as described in Example A.
As to `COc1cc(OCC2CCCN(c3cc(C#N)ccn3)C2)c2cc(-c3cn4nc(OC)sc4n3)oc2c1` (stereo not drawn) [Example 43], the IC50 came to 480 nM.

Regarding `COc1cc(OC[C@@H]2CCCN(c3ccc(C#N)cn3)C2)c2cc(-c3cn4nc(OC)sc4n3)oc2c1` [Example 44], the IC50 amounted to 750 nM.

Turning to `CCOC(=O)c1ccc(N2CCCCC2COc2cc(OC)cc3oc(-c4cn5nc(OC)sc5n4)cc23)cc1` (stereo not drawn) [Example 45], the IC50 stood at 370 nM.

On to `COc1cc(OCC2CCCCN2c2ccc(C#N)cc2)c2cc(-c3cn4nc(OC)sc4n3)oc2c1` (stereo not drawn) [Example 46], for which the IC50 amounted to 240 nM.

`CCOC(=O)c1ccc(N2CCC(COc3cc(OC)cc4oc(-c5cn6nc(OC)sc6n5)cc34)CC2)cc1` [Example 47]: the IC50 was determined as 1000 nM.

Consider `COc1cc(OCC2CCN(c3ccc(C#N)cc3)CC2)c2cc(-c3cn4nc(OC)sc4n3)oc2c1` [Example 48], for which the IC50 is 1100 nM.

For `COc1cc(OCC2CCN(c3ccc(Cl)cc3)CC2)c2cc(-c3cn4nc(OC)sc4n3)oc2c1` [Example 49], the IC50 amounted to 2700 nM.

Consider `COc1cc(OCC2CCN(c3ccc(F)cc3)CC2)c2cc(-c3cn4nc(OC)sc4n3)oc2c1` [Example 50], for which the IC50 was 4800 nM.

With `COc1cc(OCC2CCN(c3ccccc3)CC2)c2cc(-c3cn4nc(OC)sc4n3)oc2c1` [Example 51], the IC50 worked out at 5000 nM.

As for `COc1cc(OC[C@H]2CCCN(c3ccc(F)cc3)C2)c2cc(-c3cn4nc(OC)sc4n3)oc2c1` [Example 52], the IC50 was determined as 1100 nM.

Regarding `COc1cc(OC[C@@H]2CCCN(c3ccccc3)C2)c2cc(-c3cn4nc(OC)sc4n3)oc2c1` [Example 53], the IC50 came out at 1800 nM.

Take `COc1cc(OC[C@H]2CCCN(c3ccccc3)C2)c2cc(-c3cn4nc(OC)sc4n3)oc2c1` [Example 54]: the IC50 is 1400 nM.

Consider `COc1cc(OCC2CCCCN2c2ccc(Cl)cc2)c2cc(-c3cn4nc(OC)sc4n3)oc2c1` (stereo not drawn) [Example 55], for which the IC50 came out at 720 nM.

Regarding `COc1cc(OCC2CCCCN2c2ccc(Cl)cc2)c2cc(-c3cn4nc(OC)sc4n3)oc2c1` (stereo not drawn) [Example 57], the half-inhibitory concentration (IC50) turned out to be 740 nM.

As for `COc1cc(OC[C@H]2CCCN(Cc3ccc(Cl)cc3)C2)c2cc(-c3cn4nc(OC)sc4n3)oc2c1` [Example 58], the IC50 was 1400 nM.

Take `COc1cc(OC[C@H]2CCCN(C(=O)OCc3ccccc3)C2)c2cc(-c3cn4nc(OC)sc4n3)oc2c1` [Example 59]: the IC50 came out at 1200 nM.

With `COc1cc(OCC2CCCN(c3nncs3)C2)c2cc(-c3cn4nc(OC)sc4n3)oc2c1` (stereo not drawn) [Example 60], the IC50 was 2700 nM.

On to `CCOC(=O)c1cnc(N2CCCC(COc3cc(OC)cc4oc(-c5cn6nc(OC)sc6n5)cc34)C2)s1` (stereo not drawn) [Example 61], for which the IC50 worked out at 1500 nM.

On to `COc1cc(OCC2CCCN(c3ncc(Br)s3)C2)c2cc(-c3cn4nc(OC)sc4n3)oc2c1` (stereo not drawn) [Example 62], for which the IC50 was 1900 nM.

In the case of `COc1cc(OCC2CCCN(c3ccc(Cl)cn3)C2)c2cc(-c3cn4nc(OC)sc4n3)oc2c1` (stereo not drawn) [Example 63], the IC50 came out at 860 nM.

Consider `COc1cc(OCC2CCCN(c3ccc(Cl)cn3)C2)c2cc(-c3cn4nc(OC)sc4n3)oc2c1` (stereo not drawn) [Example 64], for which the IC50 was 820 nM.

In the case of `COc1cc(OCC2CCCN(c3ncc(Br)cn3)C2)c2cc(-c3cn4nc(OC)sc4n3)oc2c1` (stereo not drawn) [Example 66], the IC50 is 1400 nM.

In the case of `COc1cc(OCC2CCC(=O)N(c3ccc(Cl)cc3)C2)c2cc(-c3cn4nc(OC)sc4n3)oc2c1` (stereo not drawn) [Example 67], the IC50 is 3300 nM.

As for `COc1cc(OCC2CCCN(c3ccc(NC(=O)OC(C)(C)C)cc3)C2)c2cc(-c3cn4nc(OC)sc4n3)oc2c1` (stereo not drawn) [Example 68], the IC50 is 2100 nM.

Take `COc1cc(OCC2CCCN(c3ccc(NC(=O)OC(C)(C)C)nc3)C2)c2cc(-c3cn4nc(OC)sc4n3)oc2c1` (stereo not drawn) [Example 69]: the IC50 is 3200 nM.

In the case of `COc1ccc(COc2ccc(N3CCCC(COc4cc(OC)cc5oc(-c6cn7nc(OC)sc7n6)cc45)C3)cc2)cc1` (stereo not drawn) [Example 70], the IC50 is 3500 nM.

In the case of `COc1cc(OCC2CCCN(c3ccc(NC(=O)C(F)(F)F)nc3)C2)c2cc(-c3cn4nc(OC)sc4n3)oc2c1` (stereo not drawn) [Example 71], the IC50 was 1300 nM.

With `COc1cc(OC[C@@H]2CCCN(c3ccc(F)cc3)C2)c2cc(-c3cn4nc(OC)sc4n3)oc2c1` [Example 72], the IC50 was 1400 nM.

For the compound `COc1cc(OCC2CCCN(C3CCOCC3)C2)c2cc(-c3cn4nc(OC)sc4n3)oc2c1` (stereo not drawn) [Example 73], the IC50 was 47000 nM.

For `COc1cc(OCC2CCCN(c3ccc(N)nc3)C2)c2cc(-c3cn4nc(OC)sc4n3)oc2c1` (stereo not drawn) [Example 74], the IC50 was 28000 nM.
